The source of these data is publication PMC3790782, “Optimization and Pharmacological Validation of a Leukocyte Migration Assay in Zebrafish Larvae for the Rapid In Vivo Bioactivity Analysis of Anti-Inflammatory Secondary Metabolites” (PLoS ONE, 2013).

Where a name gives a salt, the structure may show the parent alone. Marks after values point to notes of the source that are not given here.

For one data set, the system named is zebrafish larvae. The note with it: 4 dpf zebrafish larvae, 8 h post-incubation; not more than 2 of 10 larvae with signs of toxicity. As for the experimental part:
For the toxicological analysis, ten 4 dpf zebrafish larvae were used per well in 24-well culture plates. Incubation of each set of larvae at 28°C (±0.5) was done with SAIDs, NSAIDs and non-AIDs at concentrations ranging from 0.1 µM to 500 µM, with NPs at concentrations ranging from 1 µM to 500 µM, and with PEs at concentrations ranging from 1 ug/ml to 1 mg/ml. Controls containing only vehicle (1% DMSO) and untreated larvae were processed in parallel. Examination of each set of larvae was done under light microscopy (Carl Zeiss Stemi 2000C) each hour during a period of 8 h, and a final evaluation at 24 h post-incubation. At 8 h post-incubation, signs of toxicity, e.g. pericardial oedema, cardiovascular defects (arrhythmia or decreased circulation), balance defects (loss of normal posture), locomotor defects (decreased touch response), and ultimately death were scored for every drug, NP, and PE to further establish their maximum tolerated concentration (MTC). […] In this context, only non-toxic concentrations (below the MTC) were considered for further leukocyte migration analysis. All the toxicological assays were performed in duplicate using a different batch of zebrafish larvae for each set of experiments.
Toxicological assessment of all the samples analyzed in our study was done prior to the evaluation of their anti-inflammatory properties. The maximum tolerated concentrations (MTCs) were determined at 8 h post-treatment according to toxicological parameters including pericardial oedema, cardiovascular defects (arrhythmia or decreased circulation), balance defects (loss of normal posture), locomotor defects (decreased touch response), and death. […] Vehicle-treated (1% DMSO) and untreated larvae were processed in parallel to minimize experimental variability in this toxicological evaluation.

For data set [1], the system named is leukocyte migration in 4 dpf zebrafish larvae. Briefly: LPS-enhanced leukocyte migration assay (tail transection, MPO staining, RLM). In kind it is in vivo, zebrafish (Danio rerio). Also noted: Anti-inflammatory activity at MTC: concentration or dose not given beside the values. As for the experimental part:
The lipopolysaccharide- (LPS−)enhanced leukocyte migration assay was carried out by triplicate for each sample in 4 dpf zebrafish larvae. The total incubation period of the assay was eight hours. Initially, a pre-incubation step (i.e. prior to tail transection) of one hour at 28°C (±0.5°C) was carried out in 24-well culture plates. Ten larvae per well were incubated in 1 ml of testing mix, consisting of a specific concentration of each sample and the amount of 0.3 X Danieau’s medium necessary to complete 1 ml. Immediately after pre-incubation, complete tail transection in each larva was performed. Zebrafish larvae were first anesthetized by immersion in 0.3 X Danieau’s medium containing 70 µg/ml tricaine (ethyl 3-aminobenzoate, Sigma-Aldrich) and then tail transection near the tip was performed with a sterile scalpel under light microscopy (Carl Zeiss Stemi 2000C). Larvae were then placed in fresh 0.3 X Danieau’s medium without anesthetic for a few minutes until the final incubation period. For the last step, a new testing mix was prepared including 10 µg/ml lipopolysaccharides from Salmonella typhosa ATCC 10749 (LPS, Sigma-Aldrich Chemical) to enhance leukocyte migration to the injured zone. The final incubation step (i.e. subsequent to tail transection) of the injured larvae in contact with the pro-inflammatory agent and with the specific concentration of each SAID, NSAID, non-AID, NP, and PE at 28°C (±0.5°C) was done for 7 h. Within this period, sporadic evaluations of the larvae were done to examine their viability during the time of the assay. Larvae that completed the incubation time were fixed overnight in 4% formaldehyde (Sigma-Aldrich) at 4°C. Controls containing only the vehicle (1% DMSO) were processed in parallel.
Fixed larvae were gently washed twice with 1 X PBST (PBS-1X phosphate buffered saline, Gibco +0.1% Tween 20) for 5–10 min and then incubated at room temperature in 1 ml of freshly prepared Leucognost® Pox (Merck) staining solution, made according the directions of the provider. Observation of stained black-brown cells (leukocytes) in the larvae was possible within 15 min of incubation. Evaluation of the migrating leukocytes, particularly surrounding the injured region, in each larva was done under light microscopy (Carl Zeiss Stemi 2000C) and scoring was done using a migration scale established to semi-quantify the amount of migrating leukocytes on one side of each larva.
The average of the value achieved for each of the ten larvae tested in triplicate for one sample is expressed as relative leukocyte migration (RLM) according to the formula: RLM = leukocyte migration of the larva/average leukocyte migration of the negative control.
To determine the extent of leukocyte migration generated after exposing 4 dpf zebrafish larvae to mechanical and biological stimuli – namely tail transection and LPS exposure – we used a commercially available whole-mount cytochemical staining method (Leucognost® Pox, Merck) to detect MPO activity in situ. To minimize the number of handling steps post-staining, this method was chosen over the alternative myeloperoxidase stain Sudan Black B [26], [27], which also stains phospholipids, neural fats and sterols. In our experiments, we visualized migrating leukocytes in 4 dpf larvae at 8 h post-injury. Microscopic evaluations of MPO-stained larvae allowed us to score the degree of leukocyte migration at the trauma site according to a comparative scale that we established particularly for this purpose (Figure 2). Myeloperoxidase-positive cells, appearing as black-brown dots, were counted in a segment at the edge of the tail on one side of every larva (Figure 2). The number of leukocytes was then graded according to the comparative scale and subsequently converted into a relative value expressed as the relative leukocyte migration (RLM) activity for the total number or larvae for one sample.

The mark [2] stands for this setting: Danio rerio, Leukocyte, 8 h, tail cut + 10 µg/ml LPS, relative to 1% DMSO control.
Where [3] appears, read: Danio rerio, Leukocyte, 8 h, 30 µM, tail cut + 10 µg/ml LPS, relative to 1% DMSO control.
[4] abbreviates: 200 µM, tail cut + 10 µg/ml LPS, relative to 1% DMSO control.
[5] abbreviates: 0.1 µM, tail cut + 10 µg/ml LPS, relative to 1% DMSO control.

Consider `C[C@]1(OC(=O)/C=C/c2ccccc2)C[C@@H](O)[C@]2(O)C=CO[C@@H](O[C@@H]3O[C@H](CO)[C@@H](O)[C@H](O)[C@H]3O)[C@@H]21` [Harpagoside, harpagoside], for which the “Maximum tolerated concentration (MTC)” value in the data set on zebrafish larvae was determined as 300 µM. Besides, in data set [1] (300 µM, tail cut + 10 µg/ml LPS, relative to 1% DMSO control), the “Leukocyte migration (RLM)” value is reported as 0.12 ^*. In data set [1] (setting [2]), the response vs control in vivo at 1 µM worked out at 48%, the response vs control in vivo at 10 µM stood at 29% and the response vs control in vivo at 100 µM came to 15%. For the same molecule, the response vs control in vivo at 30 µM in data set [1] (setting [3]) is 30%. Also, in data set [1] (Danio rerio, Leukocyte, 8 h, 300 µM, tail cut + 10 µg/ml LPS, relative to 1% DMSO control), the response vs control in vivo at 300 µM was 12%.

`O=C1C[C@@H](c2ccc(O)cc2)Oc2cc(O)cc(O)c21` [Naringenin, naringenin]: the “Maximum tolerated concentration (MTC)” value in the data set with zebrafish larvae is listed as 30 µM. In data set [1] (30 µM, tail cut + 10 µg/ml LPS, relative to 1% DMSO control), the “Leukocyte migration (RLM)” value is reported as 0.37 ^**. For the same molecule, in data set [1] (setting [2]), the response vs control in vivo at 1 µM was 67% and the response vs control in vivo at 10 µM was 42%. The response vs control in vivo at 30 µM in data set [1] (setting [3]) is 37%. The “Anti-inflammatory activity at MTC” value in data set [1] (at MTC, (1−RLM)x100) amounted to 63%. Moreover, in data set [1] (at the MTC given in Table 2), the “RLM (zebrafish-based assay)” value is recorded as 0.37.

As for `NC12CC3CC(CC(C3)C1)C2` [amantadine, amantadine hydrochloride], in the data set on zebrafish larvae, the “Maximum tolerated concentration (MTC)” value is given as 200 µM. For the same molecule, in data set [1] (setting [4]), the “Relative leukocyte migration (RLM)” value is reported as 0.82.

With `C[C@@H]1C[C@H]2[C@@H]3CCC4=CC(=O)C=C[C@]4(C)[C@@]3(F)[C@@H](O)C[C@]2(C)[C@@]1(O)C(=O)CO` [dexamethasone], the “Relative leukocyte migration (RLM)” value is given as 0.81 in data set [1] (setting [5]) and 0.06 in data set [1] (setting [4]).

Take `O=C(O)Cc1ccccc1Nc1c(Cl)cccc1Cl` [diclofenac]: the “Maximum tolerated concentration (MTC)” value in the data set with zebrafish larvae stood at 10 µM. For the same molecule, the “Relative leukocyte migration (RLM)” value in data set [1] (setting [5]) worked out at 0.69. Besides, the response vs control in vivo at 10 µM in data set [1] (setting [2]) came out at 13%.

`CN(C)CCC=C1c2ccccc2COc2ccccc21` [doxepin, doxepin hydrochloride]: the response vs control in vivo at 30 µM in data set [1] (setting [3]) was 71%.

Take `COc1ccc2c(c1)c(CC(=O)O)c(C)n2C(=O)c1ccc(Cl)cc1` [indomethacin]: the “Maximum tolerated concentration (MTC)” value in the data set with zebrafish larvae stood at 200 µM. For the same molecule, the “Relative leukocyte migration (RLM)” value in data set [1] (setting [5]) was found to be 0.72; in data set [1] (setting [4]) it was 0.09.

Take `Nc1nc(N)nc(N)n1` [melamine]: the “Maximum tolerated concentration (MTC)” value with zebrafish larvae was 200 µM. For the same molecule, the “Relative leukocyte migration (RLM)” value in data set [1] (setting [4]) came to 0.85.

Regarding `CN1C(C(=O)Nc2ccccn2)=C(O)c2ccccc2S1(=O)=O` [piroxicam], the “Maximum tolerated concentration (MTC)” value in the data set with zebrafish larvae was found to be 100 µM. Besides, the “Relative leukocyte migration (RLM)” value in data set [1] (setting [5]) worked out at 0.85. Further, the response vs control in vivo at 100 µM in data set [1] (setting [2]) was found to be 3%.

With `C[C@]12C=CC(=O)C=C1CC[C@@H]1[C@@H]2[C@@H](O)C[C@@]2(C)[C@H]1CC[C@]2(O)C(=O)CO` [prednisolone], the results for the “Relative leukocyte migration (RLM)” value in data set [1] (setting [5]) and in data set [1] (setting [4]) were 0.66 and 0.07, respectively.
